Experimental data published in PMC6152717, “Novel Tacrine-Scutellarin Hybrids as Multipotent Anti-Alzheimer’s Agents: Design, Synthesis and Biological Evaluation” (Molecules : A Journal of Synthetic Chemistry and Natural …, 2017).
Marks after values point to notes of the source that are not given here.

Columns and labels:
[1] = test system: AChE isolated from rat cortex homogenate; conditions: cited from earlier work
[2] = printed in DPPH EC50 column; cited from earlier work
[3] = test system: BChE from rat serum; conditions: read-out: BChE IC50 ± SEM; cited from earlier work
[4] = test system: Electric eel AChE (EeAChE); conditions: cited from earlier work
[5] = test system: AChE from human erythrocytes (hAChE); conditions: read-out: AChE IC50 ± SEM; cited from earlier work
[6] = test system: BChE from equine serum (eqBChE); conditions: read-out: BChE IC50 ± SEM; cited from earlier work
[7] = DPPH antioxidant assay; conditions: mean of at least three experiments; 30 min, methanol
Description: The free phenolic group of 1 is presumably able to easily undergo keto-enol tautomerism which has previously been postulated to be responsible for radical scavenging. Within the family of 6-Cl-THA-scutellarin hybrids, all the phenolic hydroxyls of scutellarin moiety are hindered by methyl containing methoxy groups and thus unable to exert such an effect under in vitro conditions. However, the antioxidant activity of K1383–K1389 in vivo may occur due to metabolism of the compound whereby demethylation of one or more methoxy groups can take place. This is known to be the case of 7-methoxytacrine and its major metabolite found in vivo, 7-hydroxytacrine.
DPPH, methanol, and Trolox (as reference standard) were purchased from Sigma-Aldrich. Polystyrene Nunc 96-well microplates with flat bottom shape (Thermo Fisher Scientific) were used for measuring purposes. All of the assays were carried out in methanol. DPPH solution was prepared at 0.2 mM concentration. […] The reaction time constituted 30 min. The antioxidant activity was determined by measuring the […] in absorbance at 517 nm at laboratory temperature using Synergy 2 multimode microplate reader. Each concentration was tested in triplicate. The software GraphPad Prism version 5 for Windows was used for statistical data evaluation.

[8] = PAMPA-BBB permeation assay; assay type: in vitro ADME; conditions: for Prediction of BBB penetration: PAMPA-BBB class; for Papp at 100 μM: PBS pH 7.4, 100 μM donor, mean ± SD of three independent experiments, read-out: Pe
Experimental: The parallel artificial membrane permeation assay (PAMPA) has been used based on reported protocol. The filter membrane of the donor plate was coated with PBL (Polar Brain Lipid, Avanti, Alabaster, AL, USA) in dodecane (4 μL of 20 mg/mL PBL in dodecane) and the acceptor well was filled with 300 μL of PBS pH 7.4 buffer (VD). Tested compounds were dissolved first in DMSO and then diluted with PBS pH 7.4 to reach the final concentration 100 μM in the donor well. […] 300 μL of the donor solution was added to the donor wells (VA) and the donor filter plate was carefully put on the acceptor plate so that coated membrane was “in touch” with both donor solution and acceptor buffer. Test compound diffused from the donor well through the lipid membrane (Area = 0.28 cm^2) to the acceptor well. The concentration of the drug in both donor and the acceptor wells was assessed after 3, 4, 5 and 6 h of incubation in quadruplicate using the Synergy HT UV plate reader at the maximum absorption wavelength of each compound. Concentration of the compounds was calculated from the standard curve and expressed as the permeability (Pe) according to Equation (2): (2) logPe=log {C×−ln(1−[drug]acceptor/[drug]equilibrium)} where C = (VD×VA/(VD+VA)×Area×time)

[9] = test system: HepG2 cells; assay: Hepatotoxicity on HepG2 cells, MTT assay; assay type: cell-based; conditions: Homo sapiens, HepG2; MTT, 24 h incubation; mean ± SEM of three independent experiments
Experimental: Hepatotoxicity of tested compounds was evaluated using the HepG2 cell line originally from human liver hepatocellular carcinoma (ATCC, Manassas, VA, USA). These cells were plated at density 17 × 10^3 per well in a 96-well plate in Dulbecco’s Modified Eagle’s Medium (DMEM; Gibco, Langley, OK, USA) with 10% FBS (Gibco) and were left to attach overnight. […] Stock solutons of tested compounds were prepared in DMSO (Sigma Aldrich, Prague, Czech Republic) and then diluted in DMEM medium. […] Subsequently, the medium was aspirated and 100 μL MTT solution (0.5 mg/mL) in serum-free DMEM medium was added to each well. Cells were then incubated for 1 h. The medium was then discarded and purple crystals of MTT formazan were dissolved in 100 μL DMSO under shaking. The absorbance was measured with a microplate reader (BioTek) at a minimum wavelength of 570 nm. The IC50 values were calculated using four parametric nonlinear regression with statistic software GraphPad Prism. Data were obtained from three independent experiments performed in triplicates.

[10] = target: T1, human acetylcholinesterase (hAChE) (Homo sapiens, UniProt P22303); assay: biochemical; conditions: AChE from human erythrocytes; mean of three independent measurements ± SEM
T1 construct: Human erythrocyte hemolyzate, prepared from blood samples, was applied as a source of AChE (EC 3.1.1.7); from tissue; host or cells: human erythrocytes (hemolyzate from blood of healthy volunteers)
T1 sequence (P22303 32-617 isoform P22303-2 limits assumed): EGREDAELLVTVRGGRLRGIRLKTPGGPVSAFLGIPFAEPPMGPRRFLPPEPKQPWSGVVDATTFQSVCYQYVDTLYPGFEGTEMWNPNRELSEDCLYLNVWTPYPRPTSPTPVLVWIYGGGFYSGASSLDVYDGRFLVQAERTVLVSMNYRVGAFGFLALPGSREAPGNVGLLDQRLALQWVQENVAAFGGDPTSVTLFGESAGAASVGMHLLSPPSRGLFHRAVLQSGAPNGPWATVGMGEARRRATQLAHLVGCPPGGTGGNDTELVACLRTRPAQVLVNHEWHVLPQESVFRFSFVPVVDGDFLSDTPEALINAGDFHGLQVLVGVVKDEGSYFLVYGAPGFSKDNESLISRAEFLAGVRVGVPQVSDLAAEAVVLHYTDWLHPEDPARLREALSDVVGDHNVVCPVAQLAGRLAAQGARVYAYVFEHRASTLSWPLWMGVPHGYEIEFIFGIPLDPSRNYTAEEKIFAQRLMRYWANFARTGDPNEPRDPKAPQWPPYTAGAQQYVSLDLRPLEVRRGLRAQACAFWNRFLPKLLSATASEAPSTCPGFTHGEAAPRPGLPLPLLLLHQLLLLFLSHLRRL
Experimental: (§1) Human erythrocyte hemolyzate, prepared from blood samples, was applied as a source of AChE (EC 3.1.1.7). […] The erythrocytes were washed three times with phosphate buffer (PB; 0.1 M, pH 7.4) and then hemolyzed in PB (0.01 M, Ph 7.4) in ration 1:10 (w/w), frozen and kept under −80 °C before use. Human plasma BChE (EC 3.1.1.8), 5,5′-dithiobis(2-nitrobenzoic acid) (Ellman’s reagent, DTNB), phosphate buffer solution (PBS, pH 7.4), acetylthiocholine iodide (ATCh), and butyrylthiocholine (BTCh) were purchased from Sigma-Aldrich. Polystyrene Nunc 96-well microplates with flat bottom shape (ThermoFisher Scientific, Bremen, Germany) were used for the measuring purposes. All of the assays were carried out in 0.1 M KH2PO4/K2HPO4 buffer, pH 7.4. […] The assay medium (100 μL) consisted of 40 μL of 0.1 M PBS (pH = 7.4), 20 μL of 0.01 M DTNB, 10 μL of cholinesterase, 10 µL of tested compound and 20 μL of 0.01 M substrate (ATCh or BTCh iodide solution). Assayed solutions of target compounds (10 μL, 10^−^3–10^−^9 M) were preincubated with enzyme for 5 min. The reaction was initiated by addition of 20 μL of substrate. […] Each concentration was assayed in triplicate. Percentage of inhibition (I) was calculated from the measured data as follows Equation (1): (1) I=(1−ΔAi/ΔA0)×100 [%]
(§2) ΔAi indicates absorbance change provided by cholinesterase exposed to tested compound. ΔA0 indicates absorbance change caused by intact cholinesterase, where phosphate bufffer was applied in the same was as the anticholinesterase compound. […] The IC50 values are expressed as a mean ± SEM.

[11] = target: T2, hAChE (Homo sapiens, UniProt P22303); assay: Kinetic study of AChE inhibition (Lineweaver-Burk, nonlinear regression); assay type: biochemical
T2 construct: Human erythrocyte hemolyzate, prepared from blood samples, was applied as a source of AChE (EC 3.1.1.7); from tissue; host or cells: human erythrocytes (hemolyzate from blood of healthy volunteers)
T2 sequence (P22303 32-617 isoform P22303-2 limits assumed): as above
Experimental: To determine the interaction of K1383 with hAChE, a kinetic study was carried out. Enzyme rate curves were obtained at several substrate concentrations of the inhibitor.
Inhibitors bind reversibly to both free AChE and AChE-substrate complex with equal affinity (Ki = Ki′) thus affecting the binding of substrate in the active site of enzyme and interacting with its allosteric peripheral anionic site (PAS). Interaction in this site causes conformational changes of the enzyme, including its active site. Km remained unchanged, while Vmax was reduced at higher concentration of K1383.
The kinetic study of AChE inhibition was performed using Ellman’s method. […] The type of inhibition and corresponding inhibition constant (Ki and Ki′) were determined by the nonlinear regression analysis of the substrate velocity curves at different concentrations of tested compounds. Results for each type model of inhibition (competitive, uncompetitive, mixed and mixed-non-competitive) were compared with sum-of-squares F-test. Lineweaver-Burk (double-reciprocal) plot, used for visualization of the enzyme-inhibitor interactions, was calculated using weighted least-squares regression. All calculations were performed using the GraphPad Prism software.
Figure 2 Steady-state inhibition of AChE hydrolysis of substrate acetylthiocholine (ATCh) by compound K1383 at different concentrations. […]

[12] = target: T3, human butyrylcholinesterase (hBChE) (Homo sapiens, UniProt P06276); assay: biochemical; conditions: BChE from human plasma; mean of three independent measurements ± SEM
T3 construct: Human plasma BChE (EC 3.1.1.8); purchased Sigma-Aldrich; host or cells: human plasma
T3 sequence (P06276 29-602): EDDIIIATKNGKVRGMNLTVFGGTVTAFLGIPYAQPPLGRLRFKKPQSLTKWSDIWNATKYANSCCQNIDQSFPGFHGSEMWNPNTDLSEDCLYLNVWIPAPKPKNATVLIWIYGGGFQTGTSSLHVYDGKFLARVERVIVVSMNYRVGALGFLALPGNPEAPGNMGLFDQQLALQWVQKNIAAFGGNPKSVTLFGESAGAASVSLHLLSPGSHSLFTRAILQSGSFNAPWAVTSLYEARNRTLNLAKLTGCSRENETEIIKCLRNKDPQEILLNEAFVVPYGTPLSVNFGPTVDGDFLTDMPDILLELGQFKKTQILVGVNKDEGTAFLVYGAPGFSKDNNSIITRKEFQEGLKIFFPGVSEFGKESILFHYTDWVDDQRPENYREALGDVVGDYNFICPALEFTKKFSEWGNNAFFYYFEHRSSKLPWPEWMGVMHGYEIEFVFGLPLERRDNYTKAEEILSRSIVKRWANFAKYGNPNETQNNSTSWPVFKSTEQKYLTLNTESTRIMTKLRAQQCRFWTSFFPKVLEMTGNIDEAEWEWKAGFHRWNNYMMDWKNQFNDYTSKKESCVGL
Description: It is well established that the activity of AChE decreases during the course of AD, while that of BChE increases. Several reports indicate the ability of BChE to compensate the lack of AChE thus continuing in regulation of cholinergic transmission. Therefore, the agents with affinity to both cholinesterases could play a more profound role in the AD therapy.
as §1, §2

Q: What does the source list for CCN(CC)c1cccc(-c2cc(=O)c3c(O)c(OC)c(OC)cc3o2)c1 [Compound 1]?
A: IC50 ([1]; AChE isolated from rat cortex homogenate, read-out: AChE IC50 ± SEM): 0.57 ± 0.02 µM; SI (BChE IC50/AChE IC50) ([1]; rat AChE vs rat BChE): 39.7; ORAC-FL antioxidant power [2]: 1.3 ± 0.02 ^a µM of Trolox/µM of tested compound; IC50 [3]: 22.6 ± 0.22 µM

Q: With COc1cc2oc(-c3cccc(OCC(=O)NCCCCCCNc4c5c(nc6cc(Cl)ccc46)CCCC5)c3)cc(=O)c2c(OC)c1OC [Compound 2] as the compound, how does the ORAC-FL antioxidant power [2] read?
A: 0.47 ± 0.03 ^a µM of Trolox/µM of tested compound

Q: And the IC50 ([4]; Electric eel AChE activity, read-out: AChE IC50 ± SEM (converted))?
A: 0.0472 µM

Q: And the “SI (BChE IC50/AChE IC50)” value ([4]; electric eel AChE vs equine serum BChE)?
A: 20.5

Q: And the IC50 [5]?
A: 0.0325 ± 0.00025 µM

Q: And the IC50 [6]?
A: 0.9689 ± 0.00826 µM

Q: What does the source list for Nc1c2c(nc3cc(Cl)ccc13)CCCC2 [Compound 6-Cl-THA, 6-Chlorotacrine, reference compound]?
A: EC50 [7]: > 100 µM; Prediction of BBB penetration [8]: CNS+ (high BBB permeation predicted, Pe × 10^−6 cm/s > 4.0); Papp at 100 μM ([8]; PAMPA-BBB): 50 ± 4.5 nm/s; IC50 [9]: 7.13 ± 0.11 µM

Q: Which EC50 [7] does the source give for COc1cc2oc(-c3ccc(NCCNc4c5c(nc6cc(Cl)ccc46)CCCC5)cc3)cc(=O)c2c(OC)c1OC [Compound K1383] here?
A: > 500 µM

Q: And the IC50 [10]?
A: 0.00163 ± 0.00013 µM

Q: What about the “Prediction of BBB penetration” value [8] of the same compound?
A: CNS± (BBB permeation uncertain, Pe × 10^−6 cm/s from 4.0 to 2.0)

Q: What about the Papp at 100 μM ([8]; PAMPA-BBB) of the same compound?
A: 28.8 ± 1 nm/s

Q: What about the IC50 [9] of the same compound?
A: 3.4 ± 1.05 µM

Q: And the type of inhibition ([11]; nonlinear regression analysis, p < 0.05)?
A: mixed, non-competitive

Q: And the Ki ([11]; substrate ATCh 0.156–1.250 mM, Ki = Ki′)?
A: 0.00275 ± 0.00032 µM

Q: And the IC50 [12]?
A: 1.21 ± 0.07 µM

Q: What does the source list for COc1cc2oc(-c3ccc(NCCCNc4c5c(nc6cc(Cl)ccc46)CCCC5)cc3)cc(=O)c2c(OC)c1OC [Compound K1384]?
A: EC50 [7]: > 500 µM; IC50 [10]: 0.0019 ± 0.0001 µM; Prediction of BBB penetration [8]: CNS+ (high BBB permeation predicted, Pe × 10^−6 cm/s > 4.0); Papp at 100 μM ([8]; PAMPA-BBB): 50.1 ± 22 nm/s; BBB crossing prediction ([8]; PAMPA-BBB, passive diffusion model): potential to cross the BBB; IC50 [9]: 5.77 ± 1.68 µM; IC50 [12]: 0.174 ± 0.007 µM
